Measurements taken from patent publication US20180057467A1, “NOVEL TRIAZOLE DERIVATIVES” (BAYER CROPSCIENCE AKTIENGESELLSCHAFT, priority 2015, published 2018).
Read-outs that look alike come from different tables or passages of the source.

Experiments:
[1] = tested on: Venturia inaequalis; test: Example T: in vivo preventive test on Venturia test (apples), comparison vs. known compounds; conditions: rate of application 10 ppm, evaluated 10 days after inoculation
Experimental: Example T: In Vivo Preventive Test on Venturia Test (Apples) Comparison of Compounds According to the Invention Vs. Known Compounds
The plants are then placed in a greenhouse at approximately 21° C. and a relative atmospheric humidity of approximately 90%.
The test is evaluated 10 days after the inoculation.

[2] = tested on: Phakopsora pachyrhizi; test: Example U: in vivo preventive test on Phakopsora test (soybeans), comparison vs. known compounds; conditions: rate of application 5 ppm, evaluated 7 days after inoculation
Experimental: Example U: In Vivo Preventive Test on Phakopsora Test (Soybeans); Comparison of Compounds According to the Invention Vs. Known Compounds
After the spray coating has dried on, the plants are inoculated with an aqueous spore suspension of the causal agent of soybean rust (Phakopsora pachyrhizi) and stay for 24 h without light in an incubation cabinet at approximately 24° C. and a relative atmospheric humidity of 95%.
The plants remain in the incubation cabinet at approximately 24° C. and a relative atmospheric humidity of approximately 80% and a day/night interval of 12 h.
The test is evaluated 7 days after the inoculation.

[3] = LogP by HPLC on reversed phase columns (EEC directive 79/831 Annex V.A8); format: physicochemical
Experimental: [table] If more than one Log P value is available within the same method, all the values are given and separated by “+”. […] Lambda-max-values were determined using UV-spectra from 200 nm to 400 nm and the peak values of the chromatographic signals.

[4] = method [a]: LC-UV, acidic range, 0.1% formic acid in water and acetonitrile as eluent

| Compound | LogP [3, 4] | also measured |
| --- | --- | --- |
| OC(Cn1cncn1)(c1ccc(F)cc1F)C1(Oc2ccccc2)CC1 (centres unmarked) [DE-A 3522440 Ex. I-134, reference compound] | – | Efficacy in % [1]: 76%; Efficacy in % [2]: 0% |
| OC(Cn1cncn1)(c1ccc(F)cc1)C1(Oc2ccc(Cl)cc2Cl)CC1 (centres unmarked) [DE-A 3522440 Ex. I-44, reference compound] | – | Efficacy in % [1]: 0%; Efficacy in % [2]: 15% |
| OC(Cn1cncn1)(c1ccc(F)cc1F)C1(Oc2c(F)cc(Cl)cc2F)CC1 (racemic) [Example I-01] | – | chromatographic logP ([3]; LogP): 3.57; Efficacy in % [1]: 98%; Efficacy in % [2]: 95% |
| OC(Cn1cncn1)(c1ccc(F)cc1F)C1(Oc2c(F)cc(Br)cc2F)CC1 (racemic) [Example I-03] | – | chromatographic logP ([3]; LogP): 3.7; Efficacy in % [1]: 93%; Efficacy in % [2]: 89% |
| Fc1cc(Cl)ccc1C1(C2(Oc3c(F)cc(Cl)cc3F)CC2)CO1 (centres unmarked) [Example V-14] | 5.23^[a] | – |
| O=C(c1ccc(F)cc1F)C1(Oc2c(Cl)cc(F)cc2Cl)CC1 [IV-5] | 4.76^[a] | – |
| Fc1ccc(C2(C3(Oc4c(Cl)cc(OC(F)(F)F)cc4Cl)CC3)CO2)c(F)c1 (racemic) [Example V-05] | 5.62^[a] | – |
| Fc1ccc(C2(C3(Oc4c(F)ccc(Cl)c4F)CC3)CO2)c(F)c1 (racemic) [Example V-06] | 4.65^[a] | – |
| O=C(c1ccc(F)cc1F)C1(Oc2c(F)cc(F)cc2F)CC1 [IV-1, (2,4-difluorophenyl)[1-(2,4,6-trifluorophenoxy)cyclopropyl]methanone] | – | chromatographic logP ([3]; reversed phase HPLC column, method [a]: LC-UV, acidic range, 0.1% formic acid in water and acetonitrile as eluent, read-out: LogP): 3.96 |
| Fc1ccc(C2(C3(Oc4c(F)ccc(F)c4Cl)CC3)CO2)c(F)c1 (centres unmarked) [Example V-19] | 4.35^[a] | – |
| Fc1ccc(C2(C3(Oc4c(F)ccc(F)c4F)CC3)CO2)c(F)c1 (racemic) [Example V-10] | 4.20^[a] | – |
| Fc1ccc(C2(C3(Oc4cc(F)c(F)c(F)c4)CC3)CO2)c(F)c1 (racemic) [Example V-04] | 4.64^[a] | – |
| Fc1ccc(C2(C3(Oc4ccc(F)c(F)c4F)CC3)CO2)c(F)c1 (centres unmarked) [Example V-16] | 4.28^[a] | – |
| COC(Cn1cncn1)(c1ccc(F)cc1F)C1(Oc2c(F)ccc(F)c2F)CC1 (racemic) [Example I-14] | 3.50^[a] | – |
| Fc1ccc(C2(C3(Oc4c(Cl)cc(F)cc4Cl)CC3)CO2)c(F)c1 (centres unmarked) [Example V-12] | 4.98^[a] | – |
| Fc1ccc(C2(C3(Oc4c(Cl)cc(Cl)cc4Cl)CC3)CO2)c(F)c1 (racemic) [Example V-07] | 5.56^[a] | – |
| O=C(c1ccc(F)cc1F)C1(Oc2c(Cl)cc(Cl)cc2Cl)CC1 [IV-4] | 5.34^[a] | – |
| OC(Cn1cncn1)(c1ccc(F)cc1F)C1(Oc2c(Cl)cc(Cl)cc2Cl)CC1 (racemic) [Example I-07] | 4.49^[a] | – |
| COC(Cn1cncn1)(c1ccc(F)cc1F)C1(Oc2c(Cl)cc(OC(F)(F)F)cc2Cl)CC1 (racemic) [Example I-18] | 4.87^[a] | – |
| OC(Cn1cncn1)(c1ccc(F)cc1F)C1(Oc2c(F)ccc(F)c2F)CC1 (racemic) [Example I-13] | 3.14^[a] | – |
